For one test, the target named is Focal adhesion kinase 1 (Homo sapiens, UniProt Q05397).
The target of test [1] is Dual specificity testis-specific protein kinase 1 (Homo sapiens, UniProt Q15569).
The target of test [2] is MAP kinase-activated protein kinase 3 (Homo sapiens, UniProt Q16644).
In test [3] the target is Dual specificity protein kinase CLK3 (Homo sapiens, UniProt P49761). Format: subcellular, K-562, COLO 205, SK-N-BE(2) and MV-4-11, Cell lysate. The conditions noted are these: read-out: Kd apparent.
Test [4] deals with DNA topoisomerase 2-alpha (Homo sapiens, UniProt P11388).
The target of test [5] is Mitogen-activated protein kinase 14 (Homo sapiens, UniProt Q16539).
In test [6] the target is High affinity nerve growth factor receptor (Homo sapiens, UniProt P04629).
In test [7] the target is Proto-oncogene tyrosine-protein kinase receptor Ret (Homo sapiens, UniProt P07949).
Test [8] deals with T1, Thyroid hormone receptor-associated protein 3 (Homo sapiens, UniProt Q9Y2W1).
T1 sequence (Q9Y2W1 whole entry): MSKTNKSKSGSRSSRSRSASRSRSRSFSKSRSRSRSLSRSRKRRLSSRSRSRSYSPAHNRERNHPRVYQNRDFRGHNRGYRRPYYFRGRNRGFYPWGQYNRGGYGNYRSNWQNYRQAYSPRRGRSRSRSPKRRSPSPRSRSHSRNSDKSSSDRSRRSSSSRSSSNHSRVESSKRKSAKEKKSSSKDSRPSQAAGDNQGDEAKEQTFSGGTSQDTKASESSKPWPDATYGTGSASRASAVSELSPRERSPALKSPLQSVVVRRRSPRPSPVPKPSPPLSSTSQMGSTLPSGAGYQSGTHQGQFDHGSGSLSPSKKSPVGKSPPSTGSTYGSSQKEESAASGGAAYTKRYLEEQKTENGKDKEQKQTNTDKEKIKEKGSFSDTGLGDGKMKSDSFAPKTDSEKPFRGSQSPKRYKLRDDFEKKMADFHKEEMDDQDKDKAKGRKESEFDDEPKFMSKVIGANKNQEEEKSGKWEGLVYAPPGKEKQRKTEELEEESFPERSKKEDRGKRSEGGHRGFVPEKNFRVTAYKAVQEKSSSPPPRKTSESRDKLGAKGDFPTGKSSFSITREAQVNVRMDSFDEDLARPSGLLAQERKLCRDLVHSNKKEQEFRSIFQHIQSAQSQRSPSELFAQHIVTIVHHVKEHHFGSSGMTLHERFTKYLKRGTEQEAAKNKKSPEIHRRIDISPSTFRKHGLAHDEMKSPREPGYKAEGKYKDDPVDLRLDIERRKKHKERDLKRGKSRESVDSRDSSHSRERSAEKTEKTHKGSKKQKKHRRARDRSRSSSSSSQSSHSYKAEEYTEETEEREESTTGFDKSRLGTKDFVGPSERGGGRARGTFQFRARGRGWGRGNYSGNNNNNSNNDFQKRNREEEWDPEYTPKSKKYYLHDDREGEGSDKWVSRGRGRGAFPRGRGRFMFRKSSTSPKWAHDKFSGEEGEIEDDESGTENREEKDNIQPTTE

The target of test [9] is Serine/threonine-protein kinase N3 (Homo sapiens, UniProt Q6P5Z2).
In test [10] the target is Epidermal growth factor receptor (Homo sapiens, UniProt P00533).
Test [11] deals with Cell division cycle 7-related protein kinase (Homo sapiens, UniProt O00311).
Test [12] addresses Phosphatidylethanolamine-binding protein 1 (Homo sapiens, UniProt P30086).
In test [13] the target is Glycogen synthase kinase-3 beta (Homo sapiens, UniProt P49841).
In test [14] the target is Serine/threonine-protein kinase pim-2 (Homo sapiens, UniProt Q9P1W9).
Test [15] concerns the target Membrane-associated progesterone receptor component 1 (Homo sapiens, UniProt O00264).
The target in test [16] is T2, Receptor-type tyrosine-protein kinase FLT3 (Homo sapiens, UniProt P36888).
T2 sequence (P36888 whole entry): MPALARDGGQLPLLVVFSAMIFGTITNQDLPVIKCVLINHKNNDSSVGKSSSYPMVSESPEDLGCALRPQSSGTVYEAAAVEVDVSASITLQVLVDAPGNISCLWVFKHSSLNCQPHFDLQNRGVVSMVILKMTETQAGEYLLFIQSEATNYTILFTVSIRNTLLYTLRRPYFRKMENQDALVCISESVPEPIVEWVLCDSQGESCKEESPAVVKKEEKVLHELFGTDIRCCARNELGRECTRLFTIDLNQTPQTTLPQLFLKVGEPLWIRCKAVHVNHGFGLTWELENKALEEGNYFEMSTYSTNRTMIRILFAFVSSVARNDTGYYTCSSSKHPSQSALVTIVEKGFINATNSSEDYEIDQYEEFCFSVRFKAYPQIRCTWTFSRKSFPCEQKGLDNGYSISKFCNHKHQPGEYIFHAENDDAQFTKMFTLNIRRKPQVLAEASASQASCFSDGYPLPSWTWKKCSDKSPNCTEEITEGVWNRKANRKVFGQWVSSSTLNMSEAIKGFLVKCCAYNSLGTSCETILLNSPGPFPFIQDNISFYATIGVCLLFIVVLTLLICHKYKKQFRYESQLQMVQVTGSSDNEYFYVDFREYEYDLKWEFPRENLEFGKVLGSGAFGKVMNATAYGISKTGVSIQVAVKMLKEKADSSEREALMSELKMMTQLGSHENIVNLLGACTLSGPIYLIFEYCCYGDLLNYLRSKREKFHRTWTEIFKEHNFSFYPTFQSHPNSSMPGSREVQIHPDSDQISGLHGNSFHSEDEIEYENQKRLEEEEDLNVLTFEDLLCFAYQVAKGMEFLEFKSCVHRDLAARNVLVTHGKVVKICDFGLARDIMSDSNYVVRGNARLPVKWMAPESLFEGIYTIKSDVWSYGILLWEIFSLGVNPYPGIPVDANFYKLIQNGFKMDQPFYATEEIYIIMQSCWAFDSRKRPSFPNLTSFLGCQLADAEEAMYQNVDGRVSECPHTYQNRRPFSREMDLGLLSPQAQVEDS

Test [17] concerns the target PAS domain-containing serine/threonine-protein kinase (Homo sapiens, UniProt Q96RG2).

Active and inactive are the calls of the source.
Also: in the data inactive means no Kd found up to 30 µM.

Chain of Dual specificity testis-specific protein kinase 1 (Q15569 whole entry): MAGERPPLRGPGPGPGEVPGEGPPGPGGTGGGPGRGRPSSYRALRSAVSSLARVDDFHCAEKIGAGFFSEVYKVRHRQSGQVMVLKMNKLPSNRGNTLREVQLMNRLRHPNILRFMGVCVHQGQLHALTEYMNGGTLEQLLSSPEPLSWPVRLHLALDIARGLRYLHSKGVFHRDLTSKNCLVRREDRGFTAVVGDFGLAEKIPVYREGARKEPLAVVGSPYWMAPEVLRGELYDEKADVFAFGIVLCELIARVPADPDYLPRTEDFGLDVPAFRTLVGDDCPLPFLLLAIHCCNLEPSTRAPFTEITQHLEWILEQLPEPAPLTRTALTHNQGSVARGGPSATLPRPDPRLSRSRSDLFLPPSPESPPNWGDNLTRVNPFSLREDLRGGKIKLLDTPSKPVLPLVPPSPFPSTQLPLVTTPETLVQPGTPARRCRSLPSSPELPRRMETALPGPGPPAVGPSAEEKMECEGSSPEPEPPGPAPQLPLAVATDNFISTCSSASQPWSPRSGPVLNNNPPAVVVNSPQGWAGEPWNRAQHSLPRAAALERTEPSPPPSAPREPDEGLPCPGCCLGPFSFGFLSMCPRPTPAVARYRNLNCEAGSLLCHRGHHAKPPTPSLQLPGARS
Chain of Membrane-associated progesterone receptor component 1 (O00264 whole entry): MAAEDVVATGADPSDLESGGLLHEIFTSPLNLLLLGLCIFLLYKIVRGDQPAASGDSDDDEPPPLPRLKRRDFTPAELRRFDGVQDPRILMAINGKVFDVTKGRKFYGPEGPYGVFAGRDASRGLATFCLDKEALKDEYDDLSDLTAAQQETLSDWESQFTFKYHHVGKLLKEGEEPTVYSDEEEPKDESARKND
Chain of Dual specificity protein kinase CLK3 (P49761 whole entry): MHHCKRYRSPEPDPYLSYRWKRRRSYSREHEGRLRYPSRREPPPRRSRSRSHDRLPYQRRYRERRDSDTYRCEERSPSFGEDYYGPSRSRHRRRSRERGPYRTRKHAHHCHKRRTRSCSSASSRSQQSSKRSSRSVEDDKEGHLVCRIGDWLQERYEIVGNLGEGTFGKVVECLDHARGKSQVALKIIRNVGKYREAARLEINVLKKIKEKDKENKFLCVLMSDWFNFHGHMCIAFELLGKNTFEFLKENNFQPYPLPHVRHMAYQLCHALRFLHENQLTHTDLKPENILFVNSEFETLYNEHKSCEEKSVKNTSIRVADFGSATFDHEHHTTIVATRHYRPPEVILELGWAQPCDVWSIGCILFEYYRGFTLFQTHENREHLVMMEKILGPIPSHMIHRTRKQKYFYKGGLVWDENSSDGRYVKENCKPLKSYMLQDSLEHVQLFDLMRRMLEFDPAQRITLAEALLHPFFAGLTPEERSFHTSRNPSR
Chain of Epidermal growth factor receptor (P00533 whole entry): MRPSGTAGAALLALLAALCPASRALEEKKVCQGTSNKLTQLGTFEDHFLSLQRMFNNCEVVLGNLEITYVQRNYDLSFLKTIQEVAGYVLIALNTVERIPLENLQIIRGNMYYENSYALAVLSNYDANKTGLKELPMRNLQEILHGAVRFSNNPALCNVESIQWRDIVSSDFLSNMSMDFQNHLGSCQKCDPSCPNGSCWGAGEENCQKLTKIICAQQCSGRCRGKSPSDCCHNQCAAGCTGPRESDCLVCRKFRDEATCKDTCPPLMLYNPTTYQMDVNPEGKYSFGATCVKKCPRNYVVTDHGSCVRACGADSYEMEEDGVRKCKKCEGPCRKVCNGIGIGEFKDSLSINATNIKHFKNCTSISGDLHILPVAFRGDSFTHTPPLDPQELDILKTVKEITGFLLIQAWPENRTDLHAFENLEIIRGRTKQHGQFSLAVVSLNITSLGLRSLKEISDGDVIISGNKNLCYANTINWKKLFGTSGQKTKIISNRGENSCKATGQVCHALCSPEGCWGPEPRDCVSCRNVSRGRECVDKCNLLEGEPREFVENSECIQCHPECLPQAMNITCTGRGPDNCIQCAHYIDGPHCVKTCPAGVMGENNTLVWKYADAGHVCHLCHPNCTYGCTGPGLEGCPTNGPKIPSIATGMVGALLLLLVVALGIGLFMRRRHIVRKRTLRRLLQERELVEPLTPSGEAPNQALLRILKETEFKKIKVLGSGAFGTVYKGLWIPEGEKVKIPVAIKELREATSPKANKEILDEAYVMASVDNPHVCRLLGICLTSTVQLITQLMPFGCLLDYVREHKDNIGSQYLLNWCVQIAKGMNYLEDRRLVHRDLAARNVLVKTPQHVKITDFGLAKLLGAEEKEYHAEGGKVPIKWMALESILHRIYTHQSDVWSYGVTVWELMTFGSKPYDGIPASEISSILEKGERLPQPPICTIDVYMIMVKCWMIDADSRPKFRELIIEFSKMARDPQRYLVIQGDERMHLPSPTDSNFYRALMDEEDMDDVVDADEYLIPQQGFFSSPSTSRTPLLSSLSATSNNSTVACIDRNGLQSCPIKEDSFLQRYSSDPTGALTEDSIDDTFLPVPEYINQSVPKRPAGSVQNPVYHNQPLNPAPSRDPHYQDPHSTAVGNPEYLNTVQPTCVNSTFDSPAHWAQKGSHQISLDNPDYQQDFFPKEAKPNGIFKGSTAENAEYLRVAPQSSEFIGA
Chain of Glycogen synthase kinase-3 beta (P49841 whole entry): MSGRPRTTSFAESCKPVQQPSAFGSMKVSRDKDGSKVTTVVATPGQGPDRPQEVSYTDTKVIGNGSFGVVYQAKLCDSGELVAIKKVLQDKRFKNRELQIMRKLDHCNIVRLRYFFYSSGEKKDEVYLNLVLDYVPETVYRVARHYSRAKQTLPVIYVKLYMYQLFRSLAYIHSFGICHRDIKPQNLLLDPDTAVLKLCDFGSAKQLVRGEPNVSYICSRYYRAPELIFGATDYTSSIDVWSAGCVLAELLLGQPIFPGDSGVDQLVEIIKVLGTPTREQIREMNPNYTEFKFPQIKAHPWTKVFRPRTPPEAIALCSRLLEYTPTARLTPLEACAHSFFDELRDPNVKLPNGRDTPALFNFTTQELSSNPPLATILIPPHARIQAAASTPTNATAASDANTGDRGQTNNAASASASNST
Chain of High affinity nerve growth factor receptor (P04629 whole entry): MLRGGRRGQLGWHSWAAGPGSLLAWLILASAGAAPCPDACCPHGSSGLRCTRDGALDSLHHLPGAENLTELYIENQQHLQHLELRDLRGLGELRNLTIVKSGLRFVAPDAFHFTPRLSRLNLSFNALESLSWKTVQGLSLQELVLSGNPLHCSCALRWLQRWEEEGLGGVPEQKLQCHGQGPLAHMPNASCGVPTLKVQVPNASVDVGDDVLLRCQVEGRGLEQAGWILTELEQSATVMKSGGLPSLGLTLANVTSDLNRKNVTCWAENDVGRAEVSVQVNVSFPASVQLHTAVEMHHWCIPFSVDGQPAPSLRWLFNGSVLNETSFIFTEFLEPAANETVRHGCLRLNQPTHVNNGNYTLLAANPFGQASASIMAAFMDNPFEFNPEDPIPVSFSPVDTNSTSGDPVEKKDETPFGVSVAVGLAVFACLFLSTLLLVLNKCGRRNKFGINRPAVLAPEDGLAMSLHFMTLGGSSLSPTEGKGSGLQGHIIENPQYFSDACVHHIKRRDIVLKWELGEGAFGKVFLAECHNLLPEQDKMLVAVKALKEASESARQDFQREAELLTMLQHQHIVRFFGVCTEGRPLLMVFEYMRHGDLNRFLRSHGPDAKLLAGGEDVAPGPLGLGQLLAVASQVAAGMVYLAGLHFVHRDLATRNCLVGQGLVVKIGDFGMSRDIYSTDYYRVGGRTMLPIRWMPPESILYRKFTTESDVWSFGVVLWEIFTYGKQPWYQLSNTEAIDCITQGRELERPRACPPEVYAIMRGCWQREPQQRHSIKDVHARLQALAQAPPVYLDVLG
Chain of Phosphatidylethanolamine-binding protein 1 (P30086 whole entry): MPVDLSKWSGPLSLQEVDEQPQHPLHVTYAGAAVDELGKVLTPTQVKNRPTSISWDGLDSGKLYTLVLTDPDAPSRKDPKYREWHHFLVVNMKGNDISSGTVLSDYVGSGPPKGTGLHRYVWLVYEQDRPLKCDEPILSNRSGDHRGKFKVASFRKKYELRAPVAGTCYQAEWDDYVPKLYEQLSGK
Chain of Serine/threonine-protein kinase pim-2 (Q9P1W9 whole entry): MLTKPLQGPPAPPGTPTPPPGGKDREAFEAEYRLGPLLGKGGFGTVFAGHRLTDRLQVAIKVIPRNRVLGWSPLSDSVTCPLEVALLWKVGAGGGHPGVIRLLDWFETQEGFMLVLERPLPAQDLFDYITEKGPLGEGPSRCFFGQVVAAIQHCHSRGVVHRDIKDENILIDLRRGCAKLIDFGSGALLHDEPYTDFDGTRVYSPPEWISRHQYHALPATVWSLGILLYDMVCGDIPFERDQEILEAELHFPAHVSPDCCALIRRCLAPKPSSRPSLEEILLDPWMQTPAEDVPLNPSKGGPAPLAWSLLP
Chain of MAP kinase-activated protein kinase 3 (Q16644 whole entry): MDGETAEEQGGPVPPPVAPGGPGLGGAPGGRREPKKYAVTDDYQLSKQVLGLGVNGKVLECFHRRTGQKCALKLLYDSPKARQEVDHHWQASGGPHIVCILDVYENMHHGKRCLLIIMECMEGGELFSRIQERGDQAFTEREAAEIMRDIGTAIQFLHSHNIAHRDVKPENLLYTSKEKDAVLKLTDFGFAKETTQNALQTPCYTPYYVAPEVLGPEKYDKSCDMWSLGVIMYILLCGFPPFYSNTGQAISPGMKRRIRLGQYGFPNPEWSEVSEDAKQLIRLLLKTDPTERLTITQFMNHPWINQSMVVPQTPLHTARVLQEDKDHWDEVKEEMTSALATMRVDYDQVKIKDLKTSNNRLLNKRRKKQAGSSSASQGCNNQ
Chain of Mitogen-activated protein kinase 14 (Q16539 whole entry): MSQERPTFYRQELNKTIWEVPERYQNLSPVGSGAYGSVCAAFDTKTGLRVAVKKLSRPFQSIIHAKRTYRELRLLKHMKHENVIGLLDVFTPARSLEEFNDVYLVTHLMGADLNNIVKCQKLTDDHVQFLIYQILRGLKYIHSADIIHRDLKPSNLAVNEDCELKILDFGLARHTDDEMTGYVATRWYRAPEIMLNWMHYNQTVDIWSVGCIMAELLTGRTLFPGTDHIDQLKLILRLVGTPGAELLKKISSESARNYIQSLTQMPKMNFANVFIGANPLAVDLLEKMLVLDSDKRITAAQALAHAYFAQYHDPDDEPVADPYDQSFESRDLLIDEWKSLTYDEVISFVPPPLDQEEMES

On to `CCN1CCN(Cc2ccc(Nc3ncc(F)c(-c4cc(F)c5nc(C)n(C(C)C)c5c4)n3)nc2)CC1` [ABEMACICLIB], for which the Kd (on Focal adhesion kinase 1; in test [1]; in [2]; in test [3]; in [4]; in test [5]) was > 30 µM (inactive) in each case. Further, the Kd in test [6], in [7], in test [8], in [9], in [10] and in test [11] was > 30 µM (inactive) in each case.

`COCCN1CCN(Cc2ccc(-c3n[nH]c4c3C(=O)c3c(NC(=O)NN5CCOCC5)cccc3-4)cc2)CC1` [RGB-286638]: the Kd at Focal adhesion kinase 1 is > 30 µM (inactive); in test [1], > 30 µM (inactive); in test [12] it was > 30 µM (inactive); in [13], 0.008 µM (active); in [2] it was > 30 µM (inactive); in test [14], 0.042 µM (active). Moreover, the Kd in test [3], in test [4], in [5], in test [6], in test [7] and in test [8] was > 30 µM (inactive) in each case. Further, the Kd was > 30 µM (inactive) in test [15], 0.323 µM (active) in [16], > 30 µM (inactive) in test [10] and > 30 µM (inactive) in test [11].

For `Cn1c(=O)c(F)c(Nc2ccc(I)cc2F)c2c(=O)n(C[C@@H](O)CO)cnc21` [TAK-733], the Kd (on Focal adhesion kinase 1; in test [1]; in test [12]; in test [13]; in [2]; in [14]) was > 30 µM (inactive) in each case. The Kd in test [3], in [4], in [5], in test [6], in test [17] and in test [7] was > 30 µM (inactive) in each case. Further, the Kd in test [8], in [15], in test [9], in test [16] and in test [10] was > 30 µM (inactive) in each case.

`CCc1cc2c(cc1N1CCC(N3CCOCC3)CC1)C(C)(C)c1[nH]c3cc(C#N)ccc3c1C2=O` [ALECTINIB]: the Kd (on Focal adhesion kinase 1; in test [1]; in test [12]; in [13]; in test [2]; in test [14]) was > 30 µM (inactive) throughout. Further, the Kd in [3] was 1.4 µM (active); in test [4], > 30 µM (inactive); in [5], > 30 µM (inactive); in test [6], > 30 µM (inactive); in [17], > 30 µM (inactive); in [8], > 30 µM (inactive). Besides, the Kd in [9], in [16] and in test [11] was > 30 µM (inactive) in each case.

For `COc1cc2ncnc(Nc3ccc(F)c(Cl)c3)c2cc1NC(=O)/C=C/CN1CCCCC1` [DACOMITINIB ANHYDROUS], the Kd (on Focal adhesion kinase 1; in test [12]; in test [13]; in [2]; in test [14]; in test [3]) was > 30 µM (inactive) each time. In addition, the Kd in [5], in test [6], in test [7], in test [8], in test [16] and in [11] was > 30 µM (inactive) throughout.

Take `CNC(=O)c1cccc(-c2ccc3c(N4CCOC[C@@H]4C)nc(N4CCOC[C@@H]4C)nc3n2)c1` [VISTUSERTIB]: the Kd (on Focal adhesion kinase 1; in test [1]; in test [12]; in test [13]; in [2]; in [3]) was > 30 µM (inactive) each time. Moreover, the Kd in [5], in test [6], in test [17], in test [7], in [8] and in test [15] was > 30 µM (inactive) each time. For the same compound, the Kd in [9], in test [16], in [10] and in [11] was > 30 µM (inactive) throughout.

Consider `O=C(NOC[C@H](O)CO)c1ccc(F)c(F)c1Nc1ccc(I)cc1F` [MIRDAMETINIB], for which the Kd (at Focal adhesion kinase 1; in test [1]; in [13]; in test [2]; in [14]; in test [3]) was > 30 µM (inactive) each time. In addition, the Kd in test [4], in test [6], in test [17], in test [7], in test [8] and in test [15] was > 30 µM (inactive) in each case. Further, the Kd in test [9], in [16] and in test [10] was > 30 µM (inactive) each time.

Values taken from ChEMBL document CHEMBL3991601, “The target landscape of clinical kinase drugs” (Science, 2017).
